Values of other authors, collected in patent US20110313027A1, “METHODS AND SUBSTANCES FOR STIMULATING MUSCLE REGENERATION” (priority 2008, published 2011).

Tested on: SERCAs
Conditions: cultured muscle cells

C/C=C(/C)C(=O)O[C@H]1C(C)=C2[C@H]([C@@H]1OC(=O)CCCCCCC)[C@@](C)(OC(C)=O)C[C@H](OC(=O)CCC)[C@@]1(O)[C@H]2OC(=O)[C@@]1(C)O [thapsigargin]
activity of an NFAT reporter construct: increased the activity | myotube growth and differentiation: decreases myotube growth and differentiation
